Source: PubChem BioAssay AID192 (DTP/NCI, 2004)
Values joined by “and” are separate entries in the source; they are usually repeats but may differ in a detail not shown here. Equal values may be shown once. Toxic doses and inconclusive results are not listed. The calls were made as follows: active = survival T/C of 150% or more; inactive = T/C below 125% in these data.

System: BDF1 mice, B16 melanoma ip, median survival T/C
Experiment: NCI In Vivo Anticancer Drug Screen. Data for tumor model B16 Melanoma (intraperitoneal) in B6D2F1 (BDF1) mice
Conditions: endpoint: median survival time, higher = longer survival
In short: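 Survival or tumor size is measured after treatment of tumor-bearing mice and normalised to the vehicle-treated control group.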

[1] = dose: 50.0 mg/kg/injection, schedule: Q01DX009 (ip), vehicle: Klucel (hydroxypropylcellulose) (HPC)
[2] = dose: 100.0 mg/kg/injection, schedule: Q04DX003 (ip), vehicle: Klucel (hydroxypropylcellulose) (HPC)

Measured: T/C

COc1ccc(C(C#N)N2CCOCC2)cc1 (stereo not drawn)
inactive: [1] 89 % of control | dose: 50.0 mg/kg/injection, schedule: Q04DX003 (ip), vehicle: Klucel (hydroxypropylcellulose) (HPC) 95 % of control | [2] 97 % of control

NC(=O)Oc1ccc(Cc2ccccc2)cc1
inactive: [2] 95 % of control | dose: 200.0 mg/kg/injection, schedule: Q04DX003 (ip), vehicle: Klucel (hydroxypropylcellulose) (HPC) 91 % of control | dose: 400.0 mg/kg/injection, schedule: Q04DX003 (ip), vehicle: Klucel (hydroxypropylcellulose) (HPC) 97 % of control

CC(=O)OC(C)(C)/C=C/C(=O)[C@](C)(O)[C@H]1[C@H](O)C[C@@]2(C)[C@@H]3CC=C4[C@@H](C=C(O)C(=O)C4(C)C)[C@]3(C)C(=O)C[C@]12C
inactive: dose: 0.25 mg/kg/injection, schedule: Q01DX009 (ip), vehicle: saline with Tween-80 90 % of control | dose: 0.5 mg/kg/injection, schedule: Q01DX009 (ip), vehicle: saline with Tween-80 109 % of control | dose: 1.0 mg/kg/injection, schedule: Q01DX009 (ip), vehicle: saline with Tween-80 102 % of control | dose: 2.0 mg/kg/injection, schedule: Q01DX009 (ip), vehicle: saline with Tween-80 93 % of control | dose: 4.0 mg/kg/injection, schedule: Q01DX009 (ip), vehicle: saline with Tween-80 95 % of control

ClCCN(CCCl)CCN1c2ccccc2Sc2ccccc21
inactive: dose: 1.56 mg/kg/injection, schedule: Q01DX009 (ip), vehicle: saline with Tween-80 105 % of control and 122 % of control | dose: 3.12 mg/kg/injection, schedule: Q04DX003 (ip), vehicle: Klucel (hydroxypropylcellulose) (HPC) 107 % of control | dose: 6.25 mg/kg/injection, schedule: Q01DX009 (ip), vehicle: saline with Tween-80 123 % of control | dose: 6.25 mg/kg/injection, schedule: Q04DX003 (ip), vehicle: Klucel (hydroxypropylcellulose) (HPC) 115 % of control

C[N+](C)(C)C1CC1
inactive: dose: 12.5 mg/kg/injection, schedule: Q01DX009 (ip), vehicle: saline 105 % of control | dose: 25.0 mg/kg/injection, schedule: Q01DX009 (ip), vehicle: saline 102 % of control | dose: 50.0 mg/kg/injection, schedule: Q01DX009 (ip), vehicle: saline 102 % of control

CCCCC(=O)NN
inactive: dose: 12.5 mg/kg/injection, schedule: Q01DX009 (ip), vehicle: saline with Tween-80 102 % of control | dose: 25.0 mg/kg/injection, schedule: Q01DX009 (ip), vehicle: saline with Tween-80 96 % of control | dose: 50.0 mg/kg/injection, schedule: Q01DX009 (ip), vehicle: saline with Tween-80 100 % of control

O=c1[nH]cc(N(CCCl)CCCl)c(=O)[nH]1
active: dose: 0.65 mg/kg/injection, schedule: Q01DX009 (ip), vehicle: saline with Tween-80 170 % of control | dose: 1.1 mg/kg/injection, schedule: Q01DX009 (ip), vehicle: saline with Tween-80 205 % of control | dose: 1.5 mg/kg/injection, schedule: Q01DX009 (ip), vehicle: saline 185 % of control
inactive: dose: 0.05 mg/kg/injection, schedule: Q01DX009 (ip), vehicle: saline with Tween-80 95 % of control | dose: 0.08 mg/kg/injection, schedule: Q01DX009 (ip), vehicle: saline with Tween-80 105 % of control | dose: 0.14 mg/kg/injection, schedule: Q01DX009 (ip), vehicle: saline with Tween-80 112 % of control | dose: 0.19 mg/kg/injection, schedule: Q01DX009 (ip), vehicle: saline 107 % of control

CCOC(=O)c1ccc(NC(=O)NC)cc1
inactive: dose: 100.0 mg/kg/injection, schedule: Q04DX003 (ip), vehicle: saline with Tween-80 93 % of control | dose: 200.0 mg/kg/injection, schedule: Q04DX003 (ip), vehicle: saline with Tween-80 86 % of control | dose: 400.0 mg/kg/injection, schedule: Q04DX003 (ip), vehicle: saline with Tween-80 86 % of control

C(=C\c1cccnc1)/c1ccncc1
inactive: dose: 66.0 mg/kg/injection, schedule: Q01DX009 (ip), vehicle: saline with Tween-80 96 % of control | dose: 100.0 mg/kg/injection, schedule: Q01DX009 (ip), vehicle: saline with Tween-80 93 % of control

CCOC(=O)C[Si](C)(C)C
inactive: dose: 25.0 mg/kg/injection, schedule: Q01DX009 (ip), vehicle: Klucel (hydroxypropylcellulose) (HPC) 102 % of control | [1] 108 % of control | dose: 100.0 mg/kg/injection, schedule: Q01DX009 (ip), vehicle: Klucel (hydroxypropylcellulose) (HPC) 86 % of control | dose: 200.0 mg/kg/injection, schedule: Q01DX009 (ip), vehicle: Klucel (hydroxypropylcellulose) (HPC) 107 % of control | dose: 400.0 mg/kg/injection, schedule: Q01DX009 (ip), vehicle: Klucel (hydroxypropylcellulose) (HPC) 97 % of control
